Results reported in US20260262643A1, “HERBICIDAL BENZOXAZINES” (FMC CORPORATION, priority 2022, published 2026).

Key:
kochia [1] = test: Test A preemergence; type: in vivo, Bassia scoparia
Outline: (§1)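 Loam/sand soil; pre-em directed soil spray at planting, post-em spray at 1–2 leaf (2–10 cm). Compound in non-phytotoxic solvent + surfactant. Greenhouse 10 d; visual injury vs untreated, 0 = no effect, 100 = complete control.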

ducksalad = test: Test B flooded paddy test; type: in vivo, Heteranthera limosa; conditions: 250 g ai/ha, Flood, 13 days, 0 to 100 scale (0 no effect, 100 complete control)
Outline: (§2)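 Compound is introduced into paddy water covering soil by 3 cm, treating plants that have reached two leaves. Pots are kept flooded at that depth under greenhouse conditions. Assessment at 13 days gives a 0–100 visual control score.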

kochia [2] = test: Test A postemergence; type: in vivo, Bassia scoparia; conditions: postemergence, 10 days, visual injury, 0 to 100 scale (0 no effect, 100 complete control)
Outline: as §1

ragweed [3] = test: Test A postemergence; type: in vivo, Ambrosia artemisiifolia; conditions: 500 g ai/ha, postemergence, 10 days, visual injury, 0 to 100 scale (0 no effect, 100 complete control)
Outline: as §1

goosegrass [4] = test: Test A preemergence; type: in vivo, Eleusine indica
Outline: as §1

soybean [5] = test: Test A postemergence; type: in vivo, Glycine max; conditions: 500 g ai/ha, postemergence, 10 days, visual injury, 0 to 100 scale (0 no effect, 100 complete control)
Text: (§3) Seeds of plant species selected from barnyardgrass (Echinochloa crusgalli), blackgrass (Alopecurus myosuroides), corn (Zea mays), foxtail, giant (giant foxtail, Setaria faberi), goosegrass (Eleusine indica), kochia (Bassia scoparia), oat, wild (wild oat, Avena fatua), pigweed, palmer (palmer amaranth, palmer pigweed, Amaranthus palmeri), Pigweed, Redroot (redroot pigweed, Amaranthus retroflexus), ragweed (common ragweed, Ambrosia artemisiifolia), ryegrass, Italian (italian ryegrass, Lolium multiflorum), soybean (Glycine max), and wheat (Triticum aestivum) were planted into a blend of loam soil and sand and treated preemergence with a directed soil spray using test chemicals formulated in a non-phytotoxic solvent mixture which included a surfactant. At the same time, plants selected from these crops and weed species and also galium (catchweed bedstraw, Galium aparine) and horseweed (Erigeron canadensis) were planted in pots containing the same blend of loam soil and sand and treated with postemergence applications of test chemicals formulated in the same manner. Plants ranged in height from 2 to 10 cm and were in the one- to two-leaf stage for the postemergence treatment. Treated plants and untreated controls were maintained in a greenhouse for 10 days, after which time all treated plants were compared to untreated controls and visually evaluated for injury. Plant response ratings, summarized in Table A, are based on a 0 to 100 scale where 0 is no effect and 100 is complete control. A dash (-) response means no test result.

sedge, umbrella = test: Test B flooded paddy test; type: in vivo, Cyperus difformis; conditions: 250 g ai/ha, Flood, 13 days, 0 to 100 scale (0 no effect, 100 complete control)
Outline: as §2

foxtail, giant [6] = test: Test A postemergence; type: in vivo, Setaria faberi; conditions: postemergence, 10 days, visual injury, 0 to 100 scale (0 no effect, 100 complete control)
Outline: as §1

corn [7] = test: Test A preemergence; type: in vivo, Zea mays
Text: as §3

rice = test: Test B flooded paddy test; type: in vivo, Oryza sativa; conditions: 250 g ai/ha, Flood, 13 days, 0 to 100 scale (0 no effect, 100 complete control)
Outline: as §2

barnyardgrass = test: Test B flooded paddy test; type: in vivo, Echinochloa crus-galli; conditions: 250 g ai/ha, Flood, 13 days, 0 to 100 scale (0 no effect, 100 complete control)
Outline: as §2

ryegrass, Italian [8] = test: Test A preemergence; type: in vivo, Lolium multiflorum
Outline: as §1

goosegrass [9] = test: Test A postemergence; type: in vivo, Eleusine indica; conditions: postemergence, 10 days, visual injury, 0 to 100 scale (0 no effect, 100 complete control)
Outline: as §1

pigweed, palmer [10] = test: Test A preemergence; type: in vivo, Amaranthus palmeri
Outline: as §1

ragweed [11] = test: Test A preemergence; type: in vivo, Ambrosia artemisiifolia
Outline: as §1

wheat [12] = test: Test A preemergence; type: in vivo, Triticum aestivum
Text: as §3

blackgrass = test: Test A postemergence; type: in vivo, Alopecurus myosuroides
Outline: as §1

oat, wild = test: Test A postemergence; type: in vivo, Avena fatua; conditions: 500 g ai/ha, postemergence, 10 days, visual injury, 0 to 100 scale (0 no effect, 100 complete control)
Text: as §3

foxtail, giant [13] = test: Test A preemergence; type: in vivo, Setaria faberi
Outline: as §1

horseweed = test: Test A postemergence; type: in vivo, Erigeron canadensis; conditions: postemergence, 10 days, visual injury, 0 to 100 scale (0 no effect, 100 complete control)
Outline: as §1

pigweed, palmer [14] = test: Test A postemergence; type: in vivo, Amaranthus palmeri; conditions: 500 g ai/ha, postemergence, 10 days, visual injury, 0 to 100 scale (0 no effect, 100 complete control)
Outline: as §1

wheat [15] = test: Test A postemergence; type: in vivo, Triticum aestivum; conditions: 500 g ai/ha, postemergence, 10 days, visual injury, 0 to 100 scale (0 no effect, 100 complete control)
Text: as §3

soybean [16] = test: Test A preemergence; type: in vivo, Glycine max
Text: as §3

ryegrass, Italian [17] = test: Test A postemergence; type: in vivo, Lolium multiflorum; conditions: 500 g ai/ha, postemergence, 10 days, visual injury, 0 to 100 scale (0 no effect, 100 complete control)
Outline: as §1

corn [18] = test: Test A postemergence; type: in vivo, Zea mays; conditions: postemergence, 10 days, visual injury, 0 to 100 scale (0 no effect, 100 complete control)
Text: as §3

galium = test: Test A postemergence; type: in vivo, Galium aparine; conditions: postemergence, 10 days, visual injury, 0 to 100 scale (0 no effect, 100 complete control)
Outline: as §1

[19] = 125 g ai/ha, visual injury after 10 days, 0 to 100 scale, 0 is no effect, 100 is complete control
[20] = 500 g ai/ha, 0 to 100 scale (0 no effect, 100 complete control), 10 days
[21] = 125 g ai/ha, postemergence, 10 days, visual injury, 0 to 100 scale (0 no effect, 100 complete control)
[22] = 500 g ai/ha, Postemergence, 0 to 100 scale

## Cc1cccc2c1O[C@@H](C)CN2C(=O)c1cccc(-n2cnc(C3CCC3)n2)c1 [Compound 77]
Kochia [1]; [19]
  Plant response rating, Kochia: 90
Kochia [1]; [20]
  Plant response rating, Kochia: 90
ducksalad
  Plant response rating, Ducksalad: 20
Kochia [2]; 125 g ai/ha
  Plant response rating, Kochia: 90
Kochia [2]; 500 g ai/ha
  Plant response rating, Kochia: 90
Ragweed [3]
  Plant response rating, Ragweed: 0
Goosegrass [4]; [19]
  Plant response rating, Goosegrass: 100
Goosegrass [4]; [20]
  Plant response rating, Goosegrass: 100
Soybean [5]
  Plant response rating, Soybean: 100
sedge, umbrella
  Plant response rating, Sedge, Umbrella: 85
foxtail, giant [6]; 125 g ai/ha
  Plant response rating, Foxtail, Giant: 70
foxtail, giant [6]; 500 g ai/ha
  Plant response rating, Foxtail, Giant: 90
Corn [7]; [19]
  Plant response rating, Corn: 0
Corn [7]; [20]
  Plant response rating, Corn: 30
rice
  Plant response rating, Rice: 0
barnyardgrass
  Plant response rating, Barnyardgrass: 0
ryegrass, Italian [8]; [19]
  Plant response rating, Ryegrass, Italian: 80
ryegrass, Italian [8]; [20]
  Plant response rating, Ryegrass, Italian: 100
Goosegrass [9]; 125 g ai/ha
  Plant response rating, Goosegrass: 20
Goosegrass [9]; 500 g ai/ha
  Plant response rating, Goosegrass: 60
pigweed, palmer [10]; [19]
  Plant response rating, Pigweed, Palmer: 90
pigweed, palmer [10]; [20]
  Plant response rating, Pigweed, Palmer: 100
Ragweed [11]; [19]
  Plant response rating, Ragweed: 0
Ragweed [11]; [20]
  Plant response rating, Ragweed: 0
Wheat [12]; [19]
  Plant response rating, Wheat: 20
Wheat [12]; [20]
  Plant response rating, Wheat: 50
blackgrass; [21]
  Plant response rating, Blackgrass: 50
blackgrass; [22]
  Plant response rating, Blackgrass: 70
oat, wild
  Plant response rating, Oat, Wild: 10
foxtail, giant [13]; [19]
  Plant response rating, Foxtail, Giant: 90
foxtail, giant [13]; [20]
  Plant response rating, Foxtail, Giant: 100
horseweed; 125 g ai/ha
  Plant response rating, Horseweed: 50
horseweed; 500 g ai/ha
  Plant response rating, Horseweed: 50
pigweed, palmer [14]
  Plant response rating, Pigweed, Palmer: 70
Wheat [15]
  Plant response rating, Wheat: 30
Soybean [16]; [19]
  Plant response rating, Soybean: 0
Soybean [16]; [20]
  Plant response rating, Soybean: 50
ryegrass, Italian [17]
  Plant response rating, Ryegrass, Italian: 60
Corn [18]; 125 g ai/ha
  Plant response rating, Corn: 40
Corn [18]; 500 g ai/ha
  Plant response rating, Corn: 80
galium; 125 g ai/ha
  Plant response rating, Galium: 100
galium; 500 g ai/ha
  Plant response rating, Galium: 100

## CCc1ncn(-c2ccc(C)c(C(=O)N3C[C@H](C)Oc4c(Cl)cccc43)c2)n1 [Compound 75]
Kochia [1]; [19]
  Plant response rating, Kochia: 80
Kochia [1]; [20]
  Plant response rating, Kochia: 90
ducksalad
  Plant response rating, Ducksalad: 70
Kochia [2]; 125 g ai/ha
  Plant response rating, Kochia: 90
Kochia [2]; 500 g ai/ha
  Plant response rating, Kochia: 90
Ragweed [3]
  Plant response rating, Ragweed: 80
Goosegrass [4]; [19]
  Plant response rating, Goosegrass: 100
Goosegrass [4]; [20]
  Plant response rating, Goosegrass: 100
Soybean [5]
  Plant response rating, Soybean: 100
sedge, umbrella
  Plant response rating, Sedge, Umbrella: 98
foxtail, giant [6]; 125 g ai/ha
  Plant response rating, Foxtail, Giant: 90
foxtail, giant [6]; 500 g ai/ha
  Plant response rating, Foxtail, Giant: 100
Corn [7]; [19]
  Plant response rating, Corn: 40
Corn [7]; [20]
  Plant response rating, Corn: 50
rice
  Plant response rating, Rice: 10
barnyardgrass
  Plant response rating, Barnyardgrass: 50
ryegrass, Italian [8]; [19]
  Plant response rating, Ryegrass, Italian: 100
ryegrass, Italian [8]; [20]
  Plant response rating, Ryegrass, Italian: 100
Goosegrass [9]; 125 g ai/ha
  Plant response rating, Goosegrass: 70
Goosegrass [9]; 500 g ai/ha
  Plant response rating, Goosegrass: 90
pigweed, palmer [10]; [19]
  Plant response rating, Pigweed, Palmer: 100
pigweed, palmer [10]; [20]
  Plant response rating, Pigweed, Palmer: 100
Ragweed [11]; [19]
  Plant response rating, Ragweed: 0
Ragweed [11]; [20]
  Plant response rating, Ragweed: 100
Wheat [12]; [19]
  Plant response rating, Wheat: 30
Wheat [12]; [20]
  Plant response rating, Wheat: 80
blackgrass; [21]
  Plant response rating, Blackgrass: 90
blackgrass; [22]
  Plant response rating, Blackgrass: 90
oat, wild
  Plant response rating, Oat, Wild: 90
foxtail, giant [13]; [19]
  Plant response rating, Foxtail, Giant: 100
foxtail, giant [13]; [20]
  Plant response rating, Foxtail, Giant: 100
horseweed; 125 g ai/ha
  Plant response rating, Horseweed: 50
horseweed; 500 g ai/ha
  Plant response rating, Horseweed: 70
pigweed, palmer [14]
  Plant response rating, Pigweed, Palmer: 100
Wheat [15]
  Plant response rating, Wheat: 60
Soybean [16]; [19]
  Plant response rating, Soybean: 80
Soybean [16]; [20]
  Plant response rating, Soybean: 100
ryegrass, Italian [17]
  Plant response rating, Ryegrass, Italian: 100
Corn [18]; 125 g ai/ha
  Plant response rating, Corn: 60
Corn [18]; 500 g ai/ha
  Plant response rating, Corn: 90
galium; 125 g ai/ha
  Plant response rating, Galium: 100
galium; 500 g ai/ha
  Plant response rating, Galium: 100
